Experimental data as given in publication PMC5869871 (Investigational New Drugs, 2017).
Read-outs that look alike come from different tables or passages of the source. Marks after values point to notes of the source that are not given here.

Key:
[1] = Study 1: single-dose plasma pharmacokinetics of alisertib, M1 and M2 with and without esomeprazole or rifampin; conditions: for t1/2 / half-life: arithmetic mean (SD); for AUC(0-inf): AUC0-inf; for AUC(0-t): AUC0-last
Procedure: Study 1 was a phase 1, open-label, fixed sequence, 2-cycle study in patients with advanced solid tumors or lymphomas.
In Cycle 2, patients also received single daily doses of either esomeprazole (40 mg QD delayed-release capsules) or rifampin (600 mg once daily [QD]) on Days 1 through 10.
Patients attended the study center on the day prior to the first dose (Day −1) for baseline assessments and returned on each of Days 1 to 4 of Cycle 1 and Days 8 to 11 of Cycle 2 for study assessments.
The quantitation range for the M1 assay was 2.00 to 1000 ng/mL, the assay precision ranged from 3.0 to 4.1% and the mean accuracy ranged from −1.5 to 0.3%. The quantitation range for the M2 assay was 2.00 to 1000 ng/mL, the assay precision ranged from 3.0 to 4.3% and the mean accuracy ranged from −1.1 to 0.7%. The same assays were used in Study 2, with similar values for assay precision and accuracy.
(§1) Pharmacokinetic parameters were estimated where data permitted using non-compartmental analysis with Phoenix™ WinNonlin® Version 6.3 (Pharsight Corporation, Mountain View, CA, USA). […] The AUC parameters were estimated using the linear-log trapezoidal rule.
The analyses utilized a fixed-sequence repeated measures mixed-effects linear model. All inferences were based on least squares (LS) means estimated from this model. All statistical analyses were conducted using SAS version 9.2 (SAS Institute, NC, USA). The sample size for both studies was based on the expected 90% CIs for the ratio of geometric mean AUCs. For Study 1, the within-patient CV was estimated to be 39.4% based on prior clinical PK data in cancer patients. […] For Study 2, the within-patient CV was estimated to be 31% based on more recent clinical PK data and a sample size of 16 patients was expected to provide 90% CIs of 0.83X, 1.21X.

[2] = Study 1 safety assessment (adverse events, laboratory results, vital signs, ECG); type: in vivo, human
Procedure: Safety was evaluated based on the incidence of adverse events, and changes from baseline in vital signs, ECGs, weight and clinical laboratory results and ECOG status.

[3] = Study 2: single-dose plasma pharmacokinetics of alisertib, M1 and M2 with and without itraconazole; conditions: for t1/2 / Tmax / half-life: single 30 mg alisertib ECT; for t1/2 / half-life: arithmetic mean (SD); for Tmax: median (minimum, maximum); for half-life: t1/2, Study 2
Procedure: Study 2 was a phase 1, open-label study in patients with advanced solid tumors or relapsed/refractory lymphomas.
Patients also received oral solution doses of 200 mg itraconazole QD on Days 5 through 13. […] Itraconazole was administered in the study center on Days 5, and 10 through 13 with the remaining doses being administered at home by the patients.
[1, 2] […] The quantitation range for the M1 assay was 2.00 to 1000 ng/mL, the assay precision ranged from 3.0 to 4.1% and the mean accuracy ranged from −1.5 to 0.3%. The quantitation range for the M2 assay was 2.00 to 1000 ng/mL, the assay precision ranged from 3.0 to 4.3% and the mean accuracy ranged from −1.1 to 0.7%.
as §1
The analyses utilized a fixed-sequence repeated measures mixed-effects linear model. All inferences were based on least squares (LS) means estimated from this model. All statistical analyses were conducted using SAS version 9.2 (SAS Institute, NC, USA).

[4] = cited from earlier work
[5] = cited from earlier work; remark: listed apart in the source
[6] = test system: CYP3A4; design: method as in Takeda data on file; conditions: ref Takeda data on file; cited from earlier work
[7] = Study 2 safety assessment (adverse events, laboratory results, vital signs, ECG); type: in vivo, human
[8] = human, in vivo; for mean t1/2 / median Tmax: 50 mg
[9] = in vivo; for AUC0-last / AUC(0-inf) / Cmax / Tmax / t1/2: human, 30 mg
[10] = human, plasma, oral, 50 mg, Study 1 esomeprazole arm, single 50 mg alisertib ECT, absence of esomeprazole, geometric mean (%CV)
[11] = human, plasma, oral, 50 mg, Study 1 rifampin arm, single 50 mg alisertib ECT, absence of rifampin, geometric mean (%CV)
[12] = human, plasma, oral, Study 1 esomeprazole arm, single 50 mg alisertib ECT, presence of esomeprazole 40 mg QD, geometric mean (%CV)
[13] = human, plasma, oral, Study 1 rifampin arm, single 50 mg alisertib ECT, presence of rifampin 600 mg QD, geometric mean (%CV)
[14] = Study 2, absence of itraconazole

Structure (SMILES): COc1cc(Nc2ncc3c(n2)-c2ccc(Cl)cc2C(c2c(F)cccc2OC)=NC3)ccc1C(=O)O [Alisertib]
- increase in alisertib AUCinf (systemic exposure) by esomeprazole ([1]; Study 1, single 50 mg alisertib, esomeprazole 40 mg QD): 28%
- decrease in alisertib AUCinf (AUC) by rifampin ([1]; Study 1, single 50 mg alisertib, rifampin 600 mg QD): approximately 50%
- change in Cmax in the presence of rifampin ([1]; Study 1, single 50 mg alisertib, rifampin 600 mg QD versus alone, metabolites not statistically compared): did not alter
- t1/2 ([1]; Study 1 esomeprazole arm, single 50 mg alisertib ECT, absence of esomeprazole): 16.1 (5.4)^b h
- Tmax ([1]; Study 1 esomeprazole arm, single 50 mg alisertib ECT, presence of esomeprazole 40 mg QD, median (minimum, maximum)): 3 (1, 8) h
- t1/2 ([1]; Study 1 rifampin arm, single 50 mg alisertib ECT, absence of rifampin): 16.3 (6.6)^h
- AUC0-last ([1]; Study 1 rifampin arm, single 50 mg alisertib ECT, absence of rifampin, plasma, geometric mean (%CV)): 17,936 (43%) nM*h
- t1/2 ([1]; Study 1 rifampin arm, single 50 mg alisertib ECT, presence of rifampin 600 mg QD): 8.2 (5.5)^i h
- Tmax ([1]; Study 1 rifampin arm, single 50 mg alisertib ECT, presence of rifampin 600 mg QD, median (minimum, maximum)): 2.1 (1, 6) h
- AUC(0-inf) [1, 10]: 20.3 µM·h
- AUC(0-inf) [1, 11]: 16.2 µM·h
- AUC(0-t) [1, 10]: 19.6 µM·h
- Cmax [1, 10]: 1500 nM
- Cmax [1, 11]: 1450 nM
- Tmax ([1]; human, plasma, oral, 50 mg, Tmax, Study 1 esomeprazole arm, single 50 mg alisertib ECT, absence of esomeprazole, median (minimum, maximum)): 4 h
- Tmax ([1]; human, plasma, oral, 50 mg, Tmax, Study 1 rifampin arm, single 50 mg alisertib ECT, absence of rifampin, median (minimum, maximum)): 4 h
- Tmax ([1]; human, plasma, oral, 50 mg, median Tmax, Study 1, both treatment arms, 50 mg alisertib administered alone): 3 to 4 h
- half-life ([1]; human, plasma, oral, 50 mg, t1/2, Study 1 esomeprazole arm, single 50 mg alisertib ECT, absence of esomeprazole): ~16 h
- half-life ([1]; human, plasma, oral, 50 mg, t1/2, Study 1 rifampin arm, single 50 mg alisertib ECT, absence of rifampin): ~16 h
- AUC(0-inf) [1, 12]: 25.9 µM·h
- AUC(0-inf) [1, 13]: 8.65 µM·h
- AUC(0-t) [1, 12]: 24.5 µM·h
- AUC(0-t) [1, 13]: 9.06 µM·h
- Cmax [1, 12]: 1720 nM
- Tmax ([1]; human, plasma, oral, Tmax, Study 1 rifampin arm, single 50 mg alisertib ECT, presence of rifampin 600 mg QD, median (minimum, maximum)): ~2 h
- half-life ([1]; human, plasma, oral, t1/2, Study 1 esomeprazole arm, single 50 mg alisertib ECT, presence of esomeprazole 40 mg QD): ~16 h
- half-life ([1]; human, plasma, oral, t1/2, Study 1 rifampin arm, single 50 mg alisertib ECT, presence of rifampin 600 mg QD): ~8 h
- patients who died during the study ([2]; Study 1, none deemed related to study treatment): Four
- Alopecia, treatment-related ([2]; human, in vivo): 17 (31) n (%)
- Anaemia, treatment-related ([2]; human, in vivo): 10 (18) n (%)
- Decreased appetite, treatment-related ([2]; human, in vivo): 8 (15) n (%)
- Dehydration, treatment-related ([2]; human, in vivo): 6 (11) n (%)
- Diarrhea, treatment-related ([2]; human, in vivo): 18 (33) n (%)
- Fatigue, treatment-related ([2]; human, in vivo): 14 (25) n (%)
- Leukopenia, treatment-related ([2]; human, in vivo): 7 (13) n (%)
- Nausea, treatment-related ([2]; human, in vivo): 10 (18) n (%)
- Neutropenia, treatment-related ([2]; human, in vivo): 17 (31) n (%)
- Stomatitis, treatment-related ([2]; human, in vivo): 14 (25) n (%)
- Thrombocytopenia, treatment-related ([2]; human, in vivo): 7 (13) n (%)
- Vomiting, treatment-related ([2]; human, in vivo): 8 (15) n (%)
- patients with at least 1 adverse event ([2]; human, in vivo): 52 (95%) patients
- treatment-related serious adverse events nausea and vomiting (each) ([2]; human, in vivo): 2 patients
- leukocytes and neutrophils over the course of the study ([2]; in vivo): decreases were observed
- patients with other serious adverse events considered treatment related ([2]; in vivo): Five
- vital signs or ECG findings ([2]; in vivo): no notable trends
- t1/2 [3, 14]: 22.6 (10.3)^k h
- Tmax [3, 14]: 2.9 (1.1, 10) h
- t1/2 ([3]; Study 2, presence of itraconazole 200 mg QD): 25.4 (9.2)^l h
- change in Cmax in the presence of itraconazole ([3]; Study 2, single 30 mg alisertib, itraconazole 200 mg QD versus alone): did not alter
- AUC(0-inf) ([3]; human, plasma, oral, 30 mg): 14.8 µM·h
- AUC(0-t) ([3]; human, plasma, oral, 30 mg): 13.5 µM·h
- Cmax ([3]; human, plasma, oral, 30 mg): 986 nM
- Tmax ([3]; human, plasma, oral, 30 mg, Tmax, Study 2, absence of itraconazole): ~3 h
- half-life ([3]; human, plasma, oral, 30 mg, absence of itraconazole): ~23 h
- Tmax ([3]; human, plasma, oral, Tmax, Study 2, presence of itraconazole 200 mg QD): 2.9 h
- half-life ([3]; human, plasma, oral, presence of itraconazole 200 mg QD): ~25 h
- aqueous solubility ([4]; at acidic pH): low
- pKa ([4]; free acid): 4.53
- apparent oral clearance [5]: 4.25 L/h
- CYP3A4-mediated metabolism as share of alisertib total clearance (estimated) [6]: approximately 60%
- leukocytes and neutrophils over the course of the study [7]: decreases were observed
- vital signs or ECG findings [7]: no notable trends

Structure (SMILES): COc1cc(Nc2ncc3c(n2)-c2ccc(Cl)cc2C(c2c(F)cccc2OC)=NC3)ccc1C(=O)O[C@@H]1O[C@H](C(=O)O)[C@@H](O)[C@H](O)[C@H]1O [M1, alisertib acylglurcuronide]
- mean t1/2 [8]: 15 to 18 h
- median Tmax [8]: 4 h
- AUC0-last [9]: 4962 (164%) nM*h
- AUC(0-inf) [9]: 5758 (174%)^d nM*h
- Cmax [9]: 287 nM
- Tmax [9]: 3.1 (1, 23) h
- t1/2 [9]: 23.0 (11.2)^h

Structure (SMILES): COc1cc(Nc2ncc3c(n2)-c2ccc(Cl)cc2C(c2c(O)cccc2F)=NC3)ccc1C(=O)O [M2, O-desmethyl alisertib]
- mean t1/2 [8]: 19.1 to 22 h
- median Tmax [8]: 10 h
- change in mean AUC0-inf in the presence of rifampin ([8]; 600 mg): increased
- change in mean t1/2 in the presence of rifampin ([8]; 600 mg): decreased
- AUC0-last [9]: 4977 (58%) nM*h
- AUC(0-inf) [9]: 4926 (41%)^i nM*h
- Cmax [9]: 100 nM
- Tmax [9]: 9.4 (3.0, 48) h
- t1/2 [9]: 28 (9.2)^i h
- systemic exposure metabolite/parent ratio following multiple dose itraconazole [9]: decreased
